{"source": "paper PMC12117998", "about": "“First Steps toward the Design of Peptides that Influence the Intracellular Palmitoylation Machinery” (Chembiochem, 2025)", "key": {"[1]": {"test_system": "HFF‐1 cells", "assay": "Cell viability assay (resazurin)", "type": "cell-based, human", "settings": "HFF‐1, 24 h, CF‐labeled peptides, n = 3 (Figure 3C)", "description": "(§1) HeLa (13,000), MDA‐MB‐231 (26,000), HFF‐1 (16,000) cells, mEGFP‐HRas (18,000), and SW480 and SW620 (15,000) were seeded into a 96‐well plate. Cells were treated with suitable peptide concentrations diluted in the corresponding serum‐free culture medium. After 24 h incubation under standard growth conditions, the cells were washed once with PBS. The positive control was treated for 10 min with 70% EtOH. To test the viability, cells were treated with a resazurin solution (In Vitro Toxicology Assay Kit, resazurin based, Sigma) and incubated for a further 1–2 h. The product resorufin was measured at 595 nm (λex = 550 nm) on an infinite M200 plate reader (Tecan) and normalized to the untreated negative control cells."}, "[2]": {"test_system": "HeLa cells", "assay": "Cell viability assay (resazurin)", "type": "cell-based", "settings": "24 h, CF‐labeled peptides, n = 3 (Figure 3A)", "description": "as §1"}, "[3]": {"test_system": "HeLa mEGFP‐HRas cells", "assay": "Cell viability assay (resazurin)", "type": "cell-based", "settings": "24 h, n = 3 (Figure S11A)", "description": "as §1"}, "[4]": {"test_system": "MDA‐MB‐231", "assay": "Cell viability assay (resazurin)", "type": "cell-based", "settings": "MDA‐MB‐231, 24 h, CF‐labeled peptides, n = 3 (Figure 3B)", "description": "as §1"}, "[5]": {"test_system": "mEGFP‐HRas", "assay": "Fluorescence microscopy of mEGFP‐HRas localization", "type": "cell-based", "settings": "HeLa mEGFP‐HRas cells, doxycycline-induced, 100 μM peptide, 6 h, n = 3 (Figure 8A)", "excerpt": "mEGFP‐HRas was amplified from a plasmid gifted from Karel Svoboda^[ [69] ^] (Addgene plasmid # 18662) using the primers 5′‐gcgGGTACCgccaccatggtgagcaagg‐3′ and 5′‐gcgGCGGCCGCtcaggagagcacacactt‐3′. KpnI and NotI restriction sites (capital letter) were used and the construct was cloned into the pcDNA5 FRT‐TO vector to generate an inducible T‐REx‐HeLa cell line using the Flp‐In T‐REx System (Invitrogen). The plasmid was verified by sequencing. The construct was co‐transfected together with the pOG44 vector using the FuGENE HD transfection reagent (Promega). Positive clones were selected with DMEM medium supplemented with 10% FCS, 500 μg ml^−1 penicillin/streptomycin 100 μg ml^−1 hygromycin and 10 μg ml^−1 blasticidin and verified by fluorescence microscopy and immunoblot.\nA total of 35,000 HeLa mEGFP‐HRas cells were seeded into an 8‐well plate. Cells were induced with […] ml^−1 doxycycline and incubated for around 15 h under standard growth conditions. Afterward, cells were treated for 6 h with 100 μM peptide diluted in serum‐free medium. And, 10 min prior to the end of the incubation time, the Hoechst 33342 nuclear dye was added. Cells were washed with serum‐free media. Finally, complete medium was added and cells were imaged on the UltraView VoX Spinning Disk Confocal Microscope (Perkin Elmer) on a 60X oil objective at 37 °C and 5% CO2. Images were cropped and processed using Fiji."}, "[6]": {"test_system": "EGFR signaling in SW620 cells", "assay": "EGFR‐related signaling cascade (immunoblot)", "type": "cell-based, human", "settings": "SW620 (low EGFR expression), serum‐starved, 15 μM DC‐2 for 6 h, ± 200 ng ml^−1 EGF 15 min, n = 3", "description": "(§2) SW480 and SW620 cells (1,200,000) were seeded into a 6‐well plate. The next day, cells were once washed with PBS and starved for 18 h with DMEM + 0.2% BSA. Next, 15 μM DC‐2 diluted in DMEM + 0.2% BSA was incubated with the cells for 6 h. Control wells were only treated with the starvation medium. Afterward, all wells were washed once with PBS and 200 ng ml^−1 EGF diluted in DMEM + 0.2% BSA was added for 15 min. Cells were again washed once with PBS and ice‐cold lysis buffer (25 mM Tris, 150 mM NaCl,1 mM TCEP, 2 mM EDTA, 1% Triton‐X‐100, pH 7.4) supplemented with Halt Protease and Phosphatase Inhibitor Cocktail (Thermo Fisher) was added to scrape the cells from the well. Lysates were incubated on ice for 30 min slightly shaking. After centrifugation for 30 min at 14,000 rpm at 4 °C, lysates were mixed with 4X SDS‐PAGE loading buffer (200 mM Tris‐HCl pH 6.8, 400 mM dithiothreitol, 8% SDS, 0.4% bromophenol blue, and 40% glycerol) and heated at 95 °C for 5 min. Protein samples were analyzed by SDS‐PAGE and immunoblotting. The following antibodies were used: anti‐EGFR (Cell Signaling Technology (CST) Cat#4267), anti‐pEGFR (CST Cat #3777), anti‐AKT (CST Cat#9272); anti‐pAKT (CST Cat#4060); anti‐ERK1/2 (CST Cat#4695); anti‐pERK1/2 (CST Cat#4370); anti‐β‐actin‐horseradish peroxidase (HRP) (Santa Cruz Biotechnology Cat# sc‐47778 HRP); or anti‐rabbit‐HRP conjugate (CST Cat#7074S). Images were cropped, processed, and quantified using the ImageLab software (BioRad)."}, "[7]": {"test_system": "EGFR signaling in SW480 cells", "assay": "EGFR‐related signaling cascade (immunoblot)", "type": "cell-based, human", "settings": "SW480, serum‐starved, 15 μM DC‐2 for 6 h", "description": "as §2"}}, "note": "No end group written: not given here."}
{"substance": "GLRKRLRKFRNKKMDHHCPW-NH2 [DC‐2, CPP sC18* fused to the DHHC motif derived from ZDHHC2/3/6/7/15/16/20]", "values": [{"measurement": "cytotoxicity (cell viability)", "setting": "[1]", "value": "most active peptide"}, {"measurement": "cytotoxicity (cell viability)", "setting": "[2]", "value": "most active peptide"}, {"measurement": "cytotoxicity at 100 μM", "setting": "[3]", "value": "did not harm the cells"}, {"measurement": "cytotoxicity (cell viability)", "setting": "[4]", "value": "most active peptide"}, {"measurement": "HRas localization", "setting": "[5]", "value": "altered HRas pattern"}, {"measurement": "effects on EGFR signaling", "setting": "[6]", "value": "no effects"}, {"measurement": "ERK and AKT phosphorylation, peptide only vs untreated", "setting": "[7]; n = 3 (Figure 8B)", "value": "slight increase in ERK and AKT phosphorylation"}, {"measurement": "EGFR and ERK phosphorylation, peptide and EGF vs EGF only", "setting": "[7]; then 200 ng ml^−1 EGF 15 min, n = 3 (Figure 8B,C)", "value": "increase in EGFR and ERK phosphorylation"}]}
